Measured values as given in ChEMBL document CHEMBL3885861, “Open TG-GATES”.

Organism: Rattus norvegicus
Test: Open TG-GATES - Regimen: Daily Repeat
Assay type: toxicity, organism-based, Sprague-Dawley
Set-up: regimen Daily Repeat, gender Male, age 6 weeks
Conditions: in vivo, po, 30 mg/kg, route gavage, dose level Low; for APTT / Bas / Eos / Fbg / Hb / Ht / Lym / MCH / MCHC / MCV / Mono / Neu / PT / Plat / RBC / Ret / WBC: tissue Blood; for KIDNEY_L / KIDNEY_R / KIDNEY_TOTAL: tissue Kidney; for LIVER: tissue Liver; for A/G / ALP / ALT / AST / BUN / CRE / Ca / Cl / DBIL / GLC / IP / K / LDH / Na / PL / RALB / TBIL / TC / TG / TP / gamma-GTP: tissue Plasma

ClC(Cl)(Cl)Cl [CARBON TETRACHLORIDE]
TERMINAL_BW (72 h, time 3 day): 222 g | APTT (72 h, time 3 day): 18.7 s | Bas (72 h, time 3 day): 0% | Eos (72 h, time 3 day): 1% | Fbg (72 h, time 3 day): 237.4 mg/dL | Hb (72 h, time 3 day): 13.4 g/dL | Ht (72 h, time 3 day): 39.2% | Lym (72 h, time 3 day): 77.4% | MCH (72 h, time 3 day): 22.1 pg | MCHC (72 h, time 3 day): 34.1% | MCV (72 h, time 3 day): 64.8 fL | Mono (72 h, time 3 day): 2.4% | Neu (72 h, time 3 day): 18.8% | PT (72 h, time 3 day): 11.6 s | Plat (72 h, time 3 day): 134.7 x10_4/uL | RBC (72 h, time 3 day): 606.8 x10_4/ul | Ret (72 h, time 3 day): 7.5% | WBC (72 h, time 3 day): 108.2 x10_2/uL | KIDNEY_L (72 h, time 3 day): 1 g | KIDNEY_R (72 h, time 3 day): 1 g | KIDNEY_TOTAL (72 h, time 3 day): 1.9 g | LIVER (72 h, time 3 day): 11.4 g | A/G (72 h, time 3 day): 1.4 | ALP (72 h, time 3 day): 1206 IU/L | ALT (72 h, time 3 day): 44.4 IU/L | AST (72 h, time 3 day): 65.8 IU/L | BUN (72 h, time 3 day): 15.2 mg/dL | CRE (72 h, time 3 day): 0.4 mg/dL | Ca (72 h, time 3 day): 10.8 mg/dL | Cl (72 h, time 3 day): 103.4 meq/L | DBIL (72 h, time 3 day): 0.072 mg/dL | GLC (72 h, time 3 day): 197.8 mg/dL | IP (72 h, time 3 day): 7.3 mg/dL | K (72 h, time 3 day): 4 meq/L | LDH (72 h, time 3 day): 206.4 IU/L | Na (72 h, time 3 day): 140.6 meq/L | PL (72 h, time 3 day): 166 mg/dL | RALB (72 h, time 3 day): 3.2 g/dL | TBIL (72 h, time 3 day): 0.1 mg/dL | TC (72 h, time 3 day): 86.6 mg/dL | TG (72 h, time 3 day): 72.6 mg/dL | TP (72 h, time 3 day): 5.6 g/dL | gamma-GTP (72 h, time 3 day): 1.4 IU/L | TERMINAL_BW ([…], time 7 day): 246 g | TERMINAL_BW ([…], time 14 day): 300.3 g | TERMINAL_BW ([…], time 28 day): 401.4 g | APTT ([…], time 7 day): 19.6 s | Bas ([…], time 7 day): 0% | Eos ([…], time 7 day): 0.8% | Fbg ([…], time 7 day): 232.6 mg/dL | Hb ([…], time 7 day): 14.1 g/dL | Ht ([…], time 7 day): 41% | Lym ([…], time 7 day): 82% | MCH ([…], time 7 day): 21.2 pg | MCHC ([…], time 7 day): 34.5% | MCV ([…], time 7 day): 61.7 fL | Mono ([…], time 7 day): 2.6% | Neu ([…], time 7 day): 14% | PT ([…], time 7 day): 11.9 s | Plat ([…], time 7 day): 112.6 x10_4/uL | RBC ([…], time 7 day): 666.4 x10_4/ul | Ret ([…], time 7 day): 5.5% | WBC ([…], time 7 day): 96.8 x10_2/uL | APTT ([…], time 14 day): 20.3 s | Bas ([…], time 14 day): 0% | Eos ([…], time 14 day): 0.8% | Fbg ([…], time 14 day): 238.4 mg/dL | Hb ([…], time 14 day): 14.6 g/dL | Ht ([…], time 14 day): 43% | Lym ([…], time 14 day): 80% | MCH ([…], time 14 day): 20.1 pg | MCHC ([…], time 14 day): 33.9% | MCV ([…], time 14 day): 59.4 fL | Mono ([…], time 14 day): 2% | Neu ([…], time 14 day): 16.8% | PT ([…], time 14 day): 12 s | Plat ([…], time 14 day): 113.3 x10_4/uL | RBC ([…], time 14 day): 724.8 x10_4/ul | Ret ([…], time 14 day): 3.7% | WBC ([…], time 14 day): 110.3 x10_2/uL | APTT ([…], time 28 day): 21.2 s | Bas ([…], time 28 day): 0% | Eos ([…], time 28 day): 1% | Fbg ([…], time 28 day): 238 mg/dL | Hb ([…], time 28 day): 14.8 g/dL | Ht ([…], time 28 day): 43.3% | Lym ([…], time 28 day): 85.4% | MCH ([…], time 28 day): 19.1 pg | MCHC ([…], time 28 day): 34.2% | MCV ([…], time 28 day): 55.8 fL | Mono ([…], time 28 day): 2.8% | Neu ([…], time 28 day): 10.2% | PT ([…], time 28 day): 12.3 s | Plat ([…], time 28 day): 113.3 x10_4/uL | RBC ([…], time 28 day): 776.8 x10_4/ul | Ret ([…], time 28 day): 2.8% | WBC ([…], time 28 day): 104.8 x10_2/uL | KIDNEY_L ([…], time 7 day): 1 g | KIDNEY_R ([…], time 7 day): 1 g | KIDNEY_TOTAL ([…], time 7 day): 2.1 g | KIDNEY_L ([…], time 14 day): 1.2 g | KIDNEY_R ([…], time 14 day): 1.2 g | KIDNEY_TOTAL ([…], time 14 day): 2.3 g | KIDNEY_L ([…], time 28 day): 1.3 g | KIDNEY_R ([…], time 28 day): 1.3 g | KIDNEY_TOTAL ([…], time 28 day): 2.7 g | LIVER ([…], time 7 day): 12.4 g | LIVER ([…], time 14 day): 14.4 g | LIVER ([…], time 28 day): 19.2 g | A/G ([…], time 7 day): 1.6 | ALP ([…], time 7 day): 1004.8 IU/L | ALT ([…], time 7 day): 39.2 IU/L | AST ([…], time 7 day): 70.8 IU/L | BUN ([…], time 7 day): 14.8 mg/dL | CRE ([…], time 7 day): 0.4 mg/dL | Ca ([…], time 7 day): 10.7 mg/dL | Cl ([…], time 7 day): 104.8 meq/L | DBIL ([…], time 7 day): 0.076 mg/dL | GLC ([…], time 7 day): 200.8 mg/dL | IP ([…], time 7 day): 7.7 mg/dL | K ([…], time 7 day): 4.1 meq/L | LDH ([…], time 7 day): 202 IU/L | Na ([…], time 7 day): 141.6 meq/L | PL ([…], time 7 day): 159.8 mg/dL | RALB ([…], time 7 day): 3.5 g/dL | TBIL ([…], time 7 day): 0.1 mg/dL | TC ([…], time 7 day): 75.2 mg/dL | TG ([…], time 7 day): 87.2 mg/dL | TP ([…], time 7 day): 5.6 g/dL | gamma-GTP ([…], time 7 day): 1.2 IU/L | A/G ([…], time 14 day): 1.5 | ALP ([…], time 14 day): 898.4 IU/L | ALT ([…], time 14 day): 42.2 IU/L | AST ([…], time 14 day): 75 IU/L | BUN ([…], time 14 day): 15.4 mg/dL | CRE ([…], time 14 day): 0.4 mg/dL | Ca ([…], time 14 day): 10.5 mg/dL | Cl ([…], time 14 day): 103.4 meq/L | DBIL ([…], time 14 day): 0.056 mg/dL | GLC ([…], time 14 day): 201.4 mg/dL | IP ([…], time 14 day): 8 mg/dL | K ([…], time 14 day): 3.7 meq/L | LDH ([…], time 14 day): 207.4 IU/L | Na ([…], time 14 day): 141.6 meq/L | PL ([…], time 14 day): 138.6 mg/dL | RALB ([…], time 14 day): 3.6 g/dL | TBIL ([…], time 14 day): 0.1 mg/dL | TC ([…], time 14 day): 67.4 mg/dL | TG ([…], time 14 day): 55 mg/dL | TP ([…], time 14 day): 6 g/dL | gamma-GTP ([…], time 14 day): 1 IU/L | A/G ([…], time 28 day): 1.3 | ALP ([…], time 28 day): 634.2 IU/L | ALT ([…], time 28 day): 40 IU/L | AST ([…], time 28 day): 75.2 IU/L | BUN ([…], time 28 day): 17.2 mg/dL | CRE ([…], time 28 day): 0.4 mg/dL | Ca ([…], time 28 day): 10.6 mg/dL | Cl ([…], time 28 day): 102.2 meq/L | DBIL ([…], time 28 day): 0.072 mg/dL | GLC ([…], time 28 day): 211.2 mg/dL | IP ([…], time 28 day): 6.6 mg/dL | K ([…], time 28 day): 3.9 meq/L | LDH ([…], time 28 day): 228 IU/L | Na ([…], time 28 day): 140.6 meq/L | PL ([…], time 28 day): 132 mg/dL | RALB ([…], time 28 day): 3.5 g/dL | TBIL ([…], time 28 day): 0.1 mg/dL | TC ([…], time 28 day): 59.6 mg/dL | TG ([…], time 28 day): 86.6 mg/dL | TP ([…], time 28 day): 6.2 g/dL | gamma-GTP ([…], time 28 day): 0.8 IU/L
